Where “and” joins values, the source holds several entries; their conditions need not be identical. Identical values can stand only once. Inconclusive results and toxic doses are left out.
Tested on: L1210 leukemia ip in BDF1 mice, survival T/C
Assay: NCI In Vivo Anticancer Drug Screen. Data for tumor model L1210 Leukemia (intraperitoneal) in B6D2F1 (BDF1) mice
Conditions: endpoint: mean survival time, higher = longer survival
Method in brief: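 Read-out is survival time, reported as the treated-group measurement over the vehicle-control measurement.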

[1] = dose: 100.0 mg/kg/injection, schedule: Q01DX009 (ip), vehicle: Klucel (hydroxypropylcellulose) (HPC)
[2] = dose: 200.0 mg/kg/injection, schedule: Q04DX003 (ip), vehicle: saline with Tween-80
[3] = dose: 400.0 mg/kg/injection, schedule: Q04DX003 (ip), vehicle: saline with Tween-80
[4] = dose: 100.0 mg/kg/injection, schedule: Q01DX001 (ip), vehicle: saline
[5] = dose: 200.0 mg/kg/injection, schedule: Q01DX001 (ip), vehicle: saline
[6] = dose: 400.0 mg/kg/injection, schedule: Q01DX001 (ip), vehicle: saline
[7] = dose: 75.0 mg/kg/injection, schedule: Q01DX001 (ip), vehicle: other

Structure (SMILES): COC(=O)c1ccccc1NC(=O)c1ccccc1C(=O)O
- T/C (dose: 25.0 mg/kg/injection, schedule: Q01DX009 (ip), vehicle: Klucel (hydroxypropylcellulose) (HPC)): 100 % of control
- T/C (dose: 50.0 mg/kg/injection, schedule: Q01DX009 (ip), vehicle: Klucel (hydroxypropylcellulose) (HPC)): 103 % of control
- T/C [1]: 93 % of control and 102 % of control
- T/C (dose: 100.0 mg/kg/injection, schedule: Q04DX002 (ip), vehicle: Klucel (hydroxypropylcellulose) (HPC)): 98 % of control
- T/C (dose: 150.0 mg/kg/injection, schedule: Q01DX009 (ip), vehicle: Klucel (hydroxypropylcellulose) (HPC)): 100 % of control
- T/C (dose: 225.0 mg/kg/injection, schedule: Q01DX009 (ip), vehicle: Klucel (hydroxypropylcellulose) (HPC)): 97 % of control
- T/C (dose: 335.0 mg/kg/injection, schedule: Q01DX009 (ip), vehicle: Klucel (hydroxypropylcellulose) (HPC)): 102 % of control

Structure (SMILES): CCSc1nc(C=O)c(Cc2ccc(Br)cc2)c(=O)[nH]1
- T/C (dose: 100.0 mg/kg/injection, schedule: Q04DX003 (ip), vehicle: saline with Tween-80): 106 % of control
- T/C [2]: 103 % of control
- T/C [3]: 106 % of control

Structure (SMILES): NC(=S)N/N=C\c1nccc2c(N)cccc12
- T/C (dose: 6.25 mg/kg/injection, schedule: Q01DX009 (ip), vehicle: saline with Tween-80): 122 % of control
- T/C (dose: 50.0 mg/kg/injection, schedule: Q01DX009 (ip), vehicle: saline with Tween-80): 187 % of control

Structure (SMILES): Cc1cccc(C)c1C1=CCCCC1
- T/C (dose: 50.0 mg/kg/injection, schedule: Q01DX001 (ip), vehicle: saline): 108 % of control
- T/C [4]: 104 % of control
- T/C [5]: 104 % of control
- T/C [6]: 110 % of control

Structure (SMILES): CC(=O)CC(C)=O.CCCCC(C[C-]=O)N(CC)CC.[Pd+2] (configuration not stated)
- T/C (dose: 2.4 mg/kg/injection, schedule: Q04DX003 (ip), vehicle: distilled water + Tween-80): 97 % of control
- T/C (dose: 4.7 mg/kg/injection, schedule: Q04DX003 (ip), vehicle: distilled water + Tween-80): 101 % of control
- T/C (dose: 9.4 mg/kg/injection, schedule: Q04DX003 (ip), vehicle: distilled water + Tween-80): 98 % of control
- T/C (dose: 18.8 mg/kg/injection, schedule: Q04DX003 (ip), vehicle: distilled water + Tween-80): 90 % of control

Structure (SMILES): CCN(C)c1cc2c3c(c1)CCCN3CCC2
- T/C (dose: 5.0 mg/kg/injection, schedule: Q01DX009 (ip), vehicle: saline): 103 % of control

Structure (SMILES): COC(=O)C1(C)CCCC2c3cc4c(cc3CCC21)C(=O)CC(C)O4 (configuration not stated)
- T/C (dose: 400.0 mg/kg/injection, schedule: Q01DX001 (ip), vehicle: carboxymethylcellulose (CMC)): 86 % of control

Structure (SMILES): CCOC(=O)c1ccc(NCc2nc3nc(N)nc(N)c3[nH]2)cc1
- T/C [7]: 102 % of control
- T/C (dose: 150.0 mg/kg/injection, schedule: Q01DX001 (ip), vehicle: other): 97 % of control
- T/C (dose: 300.0 mg/kg/injection, schedule: Q01DX001 (ip), vehicle: other): 97 % of control

Structure (SMILES): C=CCNC(=S)Nc1ccc(OC(=O)Nc2ccc(Cl)c(Cl)c2)cc1
- T/C (dose: 100.0 mg/kg/injection, schedule: Q04DX002 (ip), vehicle: saline with Tween-80): 102 % of control
- T/C (dose: 200.0 mg/kg/injection, schedule: Q04DX002 (ip), vehicle: saline with Tween-80): 97 % of control
- T/C (dose: 400.0 mg/kg/injection, schedule: Q04DX002 (ip), vehicle: saline with Tween-80): 105 % of control

Structure (SMILES): O=[N+]([O-])c1ccc(-[n+]2nc(-c3ccccc3)nn2-c2ccc(I)cc2)cc1
- T/C (dose: 8.0 mg/kg/injection, schedule: Q01DX015 (ip), vehicle: carboxymethylcellulose (CMC)): 96 % of control
- T/C (dose: 16.0 mg/kg/injection, schedule: Q01DX015 (ip), vehicle: carboxymethylcellulose (CMC)): 96 % of control
- T/C (dose: 32.0 mg/kg/injection, schedule: Q01DX015 (ip), vehicle: carboxymethylcellulose (CMC)): 103 % of control
- T/C (dose: 50.0 mg/kg/injection, schedule: Q01DX001 (ip), vehicle: carboxymethylcellulose (CMC)): 91 % of control
- T/C (dose: 64.0 mg/kg/injection, schedule: Q01DX015 (ip), vehicle: carboxymethylcellulose (CMC)): 88 % of control

Structure (SMILES): CC(=O)Nn1c(=O)c(=O)oc2ccccc21
- T/C (dose: 75.0 mg/kg/injection, schedule: Q01DX001 (ip), vehicle: acetone): 94 % of control
- T/C (dose: 150.0 mg/kg/injection, schedule: Q01DX001 (ip), vehicle: acetone): 93 % of control
- T/C (dose: 300.0 mg/kg/injection, schedule: Q01DX001 (ip), vehicle: acetone): 96 % of control

Structure (SMILES): CCCCCCCC(=O)N(CCC(=O)O)C(=O)O
- T/C (dose: 100.0 mg/kg/injection, schedule: Q01DX001 (ip), vehicle: saline with Tween-80): 88 % of control
- T/C (dose: 200.0 mg/kg/injection, schedule: Q01DX001 (ip), vehicle: saline with Tween-80): 96 % of control
- T/C (dose: 400.0 mg/kg/injection, schedule: Q01DX001 (ip), vehicle: saline with Tween-80): 107 % of control

Structure (SMILES): CC(=O)NCSCC(N)C(=O)O (configuration not stated)
- T/C (dose: 100.0 mg/kg/injection, schedule: Q01DX009 (ip), vehicle: saline): 100 % of control
- T/C (dose: 100.0 mg/kg/injection, schedule: Q04DX003 (ip), vehicle: saline): 108 % of control
- T/C (dose: 200.0 mg/kg/injection, schedule: Q01DX009 (ip), vehicle: saline): 95 % of control
- T/C (dose: 200.0 mg/kg/injection, schedule: Q04DX003 (ip), vehicle: saline): 92 % of control
- T/C (dose: 400.0 mg/kg/injection, schedule: Q01DX009 (ip), vehicle: saline): 92 % of control
- T/C (dose: 400.0 mg/kg/injection, schedule: Q04DX003 (ip), vehicle: saline): 94 % of control

Structure (SMILES): Cc1ccc([N+](=O)[O-])cc1NC(=O)Sc1ccccc1O
- T/C [2]: 92 % of control
- T/C [3]: 90 % of control

Structure (SMILES): Brc1cccc2c1C[n+]1ccccc1-2
- T/C (dose: 75.0 mg/kg/injection, schedule: Q01DX001 (ip), vehicle: saline): 96 % of control
- T/C (dose: 150.0 mg/kg/injection, schedule: Q01DX001 (ip), vehicle: saline): 92 % of control

Structure (SMILES): c1ccc(C2=NNc3cccc[n+]3C2)cc1
- T/C [7]: 101 % of control

Structure (SMILES): COC1OC(C2N(c3ccccc3)CCN2c2ccccc2)=CC(OC(C)=O)C1OC(C)=O (configuration not stated)
- T/C [1]: 86 % of control
- T/C (dose: 400.0 mg/kg/injection, schedule: Q01DX009 (ip), vehicle: Klucel (hydroxypropylcellulose) (HPC)): 90 % of control

Structure (SMILES): Nc1[nH]c(=O)[nH]c(=O)c1N=Nc1ccc(S(=O)(=O)Nc2nccs2)cc1
- T/C [4]: 98 % of control
- T/C [5]: 100 % of control
- T/C [6]: 102 % of control

Structure (SMILES): C=CCSc1ncnc2c1ncn2C1OC(CO)C(O)C1O (configuration not stated)
- T/C (dose: 25.0 mg/kg/injection, schedule: Q01DX Z (ip), vehicle: saline): 109 % of control and 120 % of control
- T/C (dose: 30.0 mg/kg/injection, schedule: Q01DX Z (ip), vehicle: saline): 106 % of control
- T/C (dose: 45.0 mg/kg/injection, schedule: Q01DX Z (ip), vehicle: saline): 108 % of control
- T/C (dose: 78.0 mg/kg/injection, schedule: Q01DX001 (ip), vehicle: carboxymethylcellulose (CMC)): 112 % of control
- T/C (dose: 99.0 mg/kg/injection, schedule: Q01DX Z (ip), vehicle: saline): 162 % of control
- T/C (dose: 100.0 mg/kg/injection, schedule: Q01DX001 (ip), vehicle: carboxymethylcellulose (CMC)): 115 % of control
- T/C (dose: 100.0 mg/kg/injection, schedule: Q01DX Z (ip), vehicle: saline): 166 % of control
- T/C (dose: 118.0 mg/kg/injection, schedule: Q01DX001 (ip), vehicle: carboxymethylcellulose (CMC)): 123 % of control
- T/C (dose: 151.0 mg/kg/injection, schedule: Q01DX Z (ip), vehicle: saline): 170 % of control and 181 % of control
- T/C (dose: 200.0 mg/kg/injection, schedule: Q01DX009 (ip), vehicle: carboxymethylcellulose (CMC)): 93 % of control
- T/C (dose: 200.0 mg/kg/injection, schedule: Q01DX Z (ip), vehicle: saline): 150 % of control
- T/C (dose: 266.0 mg/kg/injection, schedule: Q01DX001 (ip), vehicle: carboxymethylcellulose (CMC)): 150 % of control
- T/C (dose: 300.0 mg/kg/injection, schedule: Q01DX Z (ip), vehicle: saline): 96 % of control
- T/C (dose: 338.0 mg/kg/injection, schedule: Q01DX Z (ip), vehicle: saline): 111 % of control

Structure (SMILES): CCOC(=O)C12CCC=C1N(S(=O)(=O)N(C)C)c1ccc(NS(=O)(=O)N(C)C)cc12 (configuration not stated)
- T/C (dose: 45.0 mg/kg/injection, schedule: Q04DX003 (ip), vehicle: Klucel (hydroxypropylcellulose) (HPC)): 105 % of control
- T/C (dose: 65.0 mg/kg/injection, schedule: Q04DX003 (ip), vehicle: Klucel (hydroxypropylcellulose) (HPC)): 105 % of control
- T/C (dose: 100.0 mg/kg/injection, schedule: Q01DX001 (ip), vehicle: Klucel (hydroxypropylcellulose) (HPC)): 97 % of control
- T/C (dose: 100.0 mg/kg/injection, schedule: Q04DX003 (ip), vehicle: Klucel (hydroxypropylcellulose) (HPC)): 105 % of control and 120 % of control
- T/C (dose: 200.0 mg/kg/injection, schedule: Q01DX001 (ip), vehicle: Klucel (hydroxypropylcellulose) (HPC)): 104 % of control
- T/C (dose: 200.0 mg/kg/injection, schedule: Q04DX003 (ip), vehicle: Klucel (hydroxypropylcellulose) (HPC)): 89 % of control
- T/C (dose: 400.0 mg/kg/injection, schedule: Q01DX001 (ip), vehicle: Klucel (hydroxypropylcellulose) (HPC)): 98 % of control
- T/C (dose: 400.0 mg/kg/injection, schedule: Q04DX003 (ip), vehicle: Klucel (hydroxypropylcellulose) (HPC)): 97 % of control
